Experiments:
Format in all cases: biochemical
[1] = target: T1, Recombinant MMP-2 (Homo sapiens, UniProt P08253); assay: MMP-2 enzyme assay with DQ gelatin fluorescent substrate; conditions: 22° C., EAB pH 7.0, soluble phase of extracts
T1 construct: made in house
T1 sequence (P08253 110-660): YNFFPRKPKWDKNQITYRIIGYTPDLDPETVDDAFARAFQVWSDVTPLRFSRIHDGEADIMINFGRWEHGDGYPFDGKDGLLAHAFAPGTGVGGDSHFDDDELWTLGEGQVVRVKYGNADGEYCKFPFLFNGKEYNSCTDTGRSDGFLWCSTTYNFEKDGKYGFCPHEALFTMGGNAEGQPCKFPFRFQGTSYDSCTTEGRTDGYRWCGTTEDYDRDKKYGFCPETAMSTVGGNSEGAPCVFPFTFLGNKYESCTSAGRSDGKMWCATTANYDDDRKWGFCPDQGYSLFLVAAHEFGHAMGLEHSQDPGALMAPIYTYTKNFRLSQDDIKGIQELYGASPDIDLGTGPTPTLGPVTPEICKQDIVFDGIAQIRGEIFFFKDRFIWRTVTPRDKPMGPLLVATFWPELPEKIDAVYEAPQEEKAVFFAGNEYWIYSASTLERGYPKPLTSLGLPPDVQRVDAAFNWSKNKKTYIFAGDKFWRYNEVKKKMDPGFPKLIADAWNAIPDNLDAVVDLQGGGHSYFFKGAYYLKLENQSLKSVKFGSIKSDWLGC
Experimental: (§1) From the studies of repeated activity and lack of interference, we were able to identify three lead ingredients for further development (A, C, D; A & B were two forms of the same dried extract). These were tested in a second laboratory, using a more sensitive in vitro (non-cellular) assay system, again for individual activity and interference/synergy among MMP-inhibitors and the IL-1-inhibitor against all three forms of MMP. These assays used enzyme kinetic dose curves to determine the IC50 of each extract, Doxycyclin, and combinations of extracts (including the IL-1-inhibitor, e.g., Rosehips).
MMP-2 and MMP-9: Recombinant MMP-2 and MMP-9 were expressed as recombinant proteins and purified in constitutively active forms.
DQ gelatin: A highly labeled porcine gelatin substrate (Molecular Probes, Eugine, Oreg.) was used for the enzyme assays with MMP-2 and MMP-9. The substrate degradation was measured with λex at 494 nm and λem at 515 nm
To reduce any self-degradation of the gelatin substrate, all assays were performed at 22° C. The enzyme assay buffer (EAB) used for MMP-2, MMP-9, and MMP-8 was 50 mM Tris, pH 7.0, 200 mM NaCl, 5 mM CaCl2, 1 μM ZnCl2, 0.05% Brij 35. Assays were performed under conditions where the substrates were not rate limiting. […]

[2] = target: T2, MMP-8 (purified human neutrophil collagenase) (Homo sapiens, UniProt P22894); assay: MMP-8 enzyme assay with fluorescent peptide substrate; conditions: APMA-activated MMP-8, 22° C., EAB pH 7.0
T2 construct: purchased EMD Biosciences/Calbiochem 444229
T2 sequence (P22894 101-467): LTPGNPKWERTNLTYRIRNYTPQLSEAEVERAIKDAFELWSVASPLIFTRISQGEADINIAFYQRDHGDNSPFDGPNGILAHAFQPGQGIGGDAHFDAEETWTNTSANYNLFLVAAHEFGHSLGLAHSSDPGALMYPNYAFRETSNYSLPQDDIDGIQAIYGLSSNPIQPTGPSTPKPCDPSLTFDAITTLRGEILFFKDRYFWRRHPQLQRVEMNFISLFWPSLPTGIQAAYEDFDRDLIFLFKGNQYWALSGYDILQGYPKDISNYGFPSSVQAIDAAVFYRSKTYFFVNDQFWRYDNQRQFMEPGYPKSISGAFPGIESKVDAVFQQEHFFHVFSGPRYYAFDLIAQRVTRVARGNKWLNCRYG
Experimental: as §1
MMP-8: Purified human neutrophil collagenase was purchased from EMD
Biosciences/Calbiochem, cat # 444229. Activation of MMP-8 was required for the experiments and was performed using aminophenylmercuric acetate (APMA) for 2 h at 37° C.
Peptide substrate: The fluorescent peptide substrate Mca-Pro-Leu-Gly-Leu-Dnp-Ala-Arg-NH2 was for measuring the MMP-8 activities (Peptides International, Louisville, Ky.). The Mca is a fluorescent group and Dnp is a quencher. When the cleavage occurs, a strong fluorescent signal is released and can be measured with λex at 328 nm and λem at 393 nm.
To reduce any self-degradation of the gelatin substrate, all assays were performed at 22° C. […]

[3] = tested on: MMP-2 or 9; assay: BIOMOL colorimetric assay kit screen of botanical extracts, MMP-2 or 9 proteolytic activity; conditions: first round screening; relative to Doxycycline
Text: (§2) In excess of 80 botanical extracts (BE), were screened in vitro for inhibition against MMP-2, 8, & 9 proteolytic activity. […] Individual calorimetric assay kits (BIOMOL) were used according to the manufacturer's instructions to measure the proteolytic activity of MMP's-2, 8, and 9 in the presence or absence of individual extracts and define mixtures of extracts. The known MMP-inhibitor, Doxycycline was used as an internal standard for comparison of inhibiting activity. The following final concentrations of individual ingredients are combined (along with additional confirmatory test of the “neat” ingredients). Again all tests include a “gold standard” positive control (Doxycycline). The purpose of this interference testing is to see whether combined ingredients result in different levels of inhibition for all three MMP's (2, 8, 9) than found for individual ingredients. All samples are dissolved or extracted in water where practical and otherwise specified.

[4] = target: T3, MMP-8 (Homo sapiens, UniProt P22894); assay: BIOMOL colorimetric assay kit screen of botanical extracts, MMP-8 proteolytic activity; conditions: first round screening; relative to Doxycycline
T3 construct: purchased BIOMOL
T3 sequence (P22894 100-262 limits assumed): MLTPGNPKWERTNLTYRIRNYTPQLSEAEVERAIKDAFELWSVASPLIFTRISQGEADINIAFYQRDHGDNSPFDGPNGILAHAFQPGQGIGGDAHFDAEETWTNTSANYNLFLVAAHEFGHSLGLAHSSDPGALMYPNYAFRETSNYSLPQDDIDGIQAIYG
Text: as §2

SMILES	IC50 for MMP-2 [1] [µg/mL]	IC50 for MMP-8 [2] [µg/mL]	Inhib. Relative to Doxy. (Fold = % inhib X/% inhib Dox), MMP-2 or 9 [3] [Fold]	Inhib. Relative to Doxy. (Fold = % inhib X/% inhib Dox), MMP-8 [4] [Fold]
C[C@H]1c2cccc(O)c2C(O)=C2C(=O)[C@]3(O)C(O)=C(C(N)=O)C(=O)[C@@H](N(C)C)[C@@H]3[C@@H](O)[C@@H]21 [DOX, Doxycycline]	32	35	–	–
O=c1c(O)c(-c2ccc(O)c(O)c2)oc2cc(O)cc(O)c12 [E) Quercetin, Quercetin]	–	–	1.56	0.82

— patent publication US20070275104A1, “Food Compositions and Methods of Treating Periodontal Disease” (priority 2006, published 2007)
